Data: ChEMBL document CHEMBL3885861, “Open TG-GATES”

Species on record: Rattus norvegicus
Experiment: Open TG-GATES - Regimen: Single
Assay type: toxicity, organism-based, Sprague-Dawley
Set-up: regimen Single, gender Male, age 6 weeks
Settings: in vivo, po, 20 mg/kg, route gavage, dose level Middle; for APTT / Bas / Eos / Fbg / Hb / Ht / Lym / MCH / MCHC / MCV / Mono / Neu / PT / Plat / RBC / Ret / WBC: tissue Blood; for KIDNEY_L / KIDNEY_R / KIDNEY_TOTAL: tissue Kidney; for LIVER: tissue Liver; for A/G / ALP / ALT / AST / BUN / CRE / Ca / Cl / DBIL / GLC / IP / K / LDH / Na / PL / RALB / TBIL / TC / TG / TP / gamma-GTP: tissue Plasma

`CC(C)NNC(=O)c1ccncc1` [IPRONIAZID] showed a TERMINAL_BW (3 h) of 203.6 g, an APTT (3 h) of 21.7 s and a Bas (3 h) of 0%. The Eos (3 h) was 1%, the Fbg (3 h) was 321.4 mg/dL and the Hb (3 h) was 12.8 g/dL. It also gave a Ht (3 h) of 37.7%, a Lym (3 h) of 78.8% and an MCH (3 h) of 21.6 pg. The MCHC (3 h) was 34.1%, the MCV (3 h) was 63.4 fL and the Mono (3 h) was 2%. For the same molecule, the Neu (3 h) was 17.8%, the PT (3 h) was 16.3 s and the Plat (3 h) was 114.7 x10_4/uL. The RBC (3 h) was 594.6 x10_4/ul, the Ret (3 h) was 8.2% and the WBC (3 h) was 62.7 x10_2/uL. The KIDNEY_L (3 h) was 1 g, the KIDNEY_R (3 h) was 1 g and the KIDNEY_TOTAL (3 h) was 1.9 g. It also gave an LIVER (3 h) of 9.6 g, an A/G (3 h) of 1.3 and an ALP (3 h) of 1741.8 IU/L. It also gave an ALT (3 h) of 35.4 IU/L, an AST (3 h) of 73.2 IU/L and a BUN (3 h) of 12.4 mg/dL. It also gave a CRE (3 h) of 0.2 mg/dL, a Ca (3 h) of 10.7 mg/dL and a Cl (3 h) of 107.2 meq/L. It also gave a DBIL (3 h) of 0.006 mg/dL, a GLC (3 h) of 182.8 mg/dL and an IP (3 h) of 8.8 mg/dL. It also gave a K (3 h) of 4 meq/L, an LDH (3 h) of 229.4 IU/L and a Na (3 h) of 142 meq/L. For the same molecule, the PL (3 h) was 143.6 mg/dL, the RALB (3 h) was 3.2 g/dL and the TBIL (3 h) was 0.01 mg/dL. The TC (3 h) was 78.8 mg/dL, the TG (3 h) was 58.8 mg/dL and the TP (3 h) was 5.7 g/dL. For the same molecule, the gamma-GTP (3 h) was 1.2 IU/L, the TERMINAL_BW (6 h) was 213.3 g and the APTT (6 h) was 23.3 s. The Bas (6 h) was 0%, the Eos (6 h) was 0.6% and the Fbg (6 h) was 324.6 mg/dL. For the same molecule, the Hb (6 h) was 13.2 g/dL, the Ht (6 h) was 38.9% and the Lym (6 h) was 72.6%. It also gave an MCH (6 h) of 21.5 pg, an MCHC (6 h) of 34.1% and an MCV (6 h) of 63.1 fL. It also gave a Mono (6 h) of 2.6%, a Neu (6 h) of 23.6% and a PT (6 h) of 15.6 s. The Plat (6 h) was 118.4 x10_4/uL, the RBC (6 h) was 615.8 x10_4/ul and the Ret (6 h) was 8%. It also gave a WBC (6 h) of 79 x10_2/uL, a KIDNEY_L (6 h) of 1 g and a KIDNEY_R (6 h) of 1 g. For the same molecule, the KIDNEY_TOTAL (6 h) was 1.9 g, the LIVER (6 h) was 9.4 g and the A/G (6 h) was 1.2. The ALP (6 h) was 1382.2 IU/L, the ALT (6 h) was 34.4 IU/L and the AST (6 h) was 72.8 IU/L. The BUN (6 h) was 10.4 mg/dL, the CRE (6 h) was 0.1 mg/dL and the Ca (6 h) was 10.6 mg/dL. The Cl (6 h) was 107 meq/L, the DBIL (6 h) was 0.002 mg/dL and the GLC (6 h) was 178.8 mg/dL. For the same molecule, the IP (6 h) was 10.3 mg/dL, the K (6 h) was 4.3 meq/L and the LDH (6 h) was 212.6 IU/L. For the same molecule, the Na (6 h) was 142 meq/L, the PL (6 h) was 154.6 mg/dL and the RALB (6 h) was 2.9 g/dL. It also gave a TBIL (6 h) of 0.008 mg/dL, a TC (6 h) of 86.4 mg/dL and a TG (6 h) of 68.2 mg/dL. For the same molecule, the TP (6 h) was 5.4 g/dL, the gamma-GTP (6 h) was 1.2 IU/L and the TERMINAL_BW (9 h) was 207.6 g. For the same molecule, the APTT (9 h) was 22.8 s, the Bas (9 h) was 0% and the Eos (9 h) was 1%. The Fbg (9 h) was 306.4 mg/dL, the Hb (9 h) was 13.1 g/dL and the Ht (9 h) was 37.8%. For the same molecule, the Lym (9 h) was 76.4%, the MCH (9 h) was 21.4 pg and the MCHC (9 h) was 34.6%. For the same molecule, the MCV (9 h) was 61.8 fL, the Mono (9 h) was 2.6% and the Neu (9 h) was 19.4%. It also gave a PT (9 h) of 15.5 s, a Plat (9 h) of 116.3 x10_4/uL and an RBC (9 h) of 612.4 x10_4/ul. It also gave a Ret (9 h) of 7.7%, a WBC (9 h) of 87.5 x10_2/uL and a KIDNEY_L (9 h) of 1 g. For the same molecule, the KIDNEY_R (9 h) was 1 g, the KIDNEY_TOTAL (9 h) was 2 g and the LIVER (9 h) was 8.6 g. It also gave an A/G (9 h) of 1.3, an ALP (9 h) of 1268.2 IU/L and an ALT (9 h) of 35 IU/L. It also gave an AST (9 h) of 70.2 IU/L, a BUN (9 h) of 8.4 mg/dL and a CRE (9 h) of 0.2 mg/dL. The Ca (9 h) was 10.6 mg/dL, the Cl (9 h) was 106.6 meq/L and the DBIL (9 h) was 0.01 mg/dL. For the same molecule, the GLC (9 h) was 176.2 mg/dL, the IP (9 h) was 10.2 mg/dL and the K (9 h) was 4.2 meq/L. For the same molecule, the LDH (9 h) was 171 IU/L, the Na (9 h) was 141.4 meq/L and the PL (9 h) was 130.4 mg/dL. For the same molecule, the RALB (9 h) was 3 g/dL, the TBIL (9 h) was 0.02 mg/dL and the TC (9 h) was 79.2 mg/dL. The TG (9 h) was 35.8 mg/dL, the TP (9 h) was 5.4 g/dL and the gamma-GTP (9 h) was 1 IU/L. For the same molecule, the TERMINAL_BW (24 h) was 213.8 g, the APTT (24 h) was 21.6 s and the Bas (24 h) was 0%. For the same molecule, the Eos (24 h) was 0.6%, the Fbg (24 h) was 318.8 mg/dL and the Hb (24 h) was 12.9 g/dL. It also gave a Ht (24 h) of 37.7%, a Lym (24 h) of 76.8% and an MCH (24 h) of 20.9 pg. It also gave an MCHC (24 h) of 34.2%, an MCV (24 h) of 60.9 fL and a Mono (24 h) of 2%. It also gave a Neu (24 h) of 19.6%, a PT (24 h) of 15.9 s and a Plat (24 h) of 125.4 x10_4/uL. For the same molecule, the RBC (24 h) was 618.2 x10_4/ul, the Ret (24 h) was 7.7% and the WBC (24 h) was 81.3 x10_2/uL. The KIDNEY_L (24 h) was 1 g, the KIDNEY_R (24 h) was 1 g and the KIDNEY_TOTAL (24 h) was 1.9 g. The LIVER (24 h) was 10.1 g, the A/G (24 h) was 1.2 and the ALP (24 h) was 1498.8 IU/L. The ALT (24 h) was 38.2 IU/L, the AST (24 h) was 73 IU/L and the BUN (24 h) was 17.8 mg/dL. For the same molecule, the CRE (24 h) was 0.2 mg/dL, the Ca (24 h) was 10.9 mg/dL and the Cl (24 h) was 105.4 meq/L. For the same molecule, the DBIL (24 h) was 0.006 mg/dL, the GLC (24 h) was 177.6 mg/dL and the IP (24 h) was 8 mg/dL. It also gave a K (24 h) of 4.5 meq/L, an LDH (24 h) of 275.4 IU/L and a Na (24 h) of 141.6 meq/L. It also gave a PL (24 h) of 134.8 mg/dL, an RALB (24 h) of 3 g/dL and a TBIL (24 h) of 0.006 mg/dL. It also gave a TC (24 h) of 73 mg/dL, a TG (24 h) of 85.6 mg/dL and a TP (24 h) of 5.5 g/dL. For the same molecule, the gamma-GTP (24 h) was 1.6 IU/L.
